Reference: PMC3466212, “Novel AChE Inhibitors for Sustainable Insecticide Resistance Management” (PLoS ONE, 2012)

The compounds below were run against WT AChE1 (Culex pipiens, UniProt Q86GC8) (assay: AChE assay (Ellman), dose-response on recombinant WT AChE1). Details: recombinant wild-type C. pipiens AChE1; 15 min incubation; acetylthiocholine; read-out: IC50 WT.
Assay type: biochemical
Parameters: made in house; host or cells: Drosophila S2 cells
Experimental: (§1) Production of C. pipiens WT and mutated AChE1s in Drosophila S2 cells was already described. The chemical library (ChemBridge, 3,000 compounds) screening was performed in duplicate on G119S recombinant AChE1. Chemicals were made soluble in ethanol or dimethylsulphoxide (DMSO), and then diluted at 300 µM in ethanol for storage. Compounds (30 µM final concentration) were incubated for 15 min at room temperature with 100 µl of G119S recombinant AChE1 then 100 µl of substrate (acetylthiocholine, 1.6 mM, Sigma-Aldrich) was added and the residual activity was quantified by measuring the optical density at 412 nm, as described by Ellman et al.. PTF analogs were analyzed in dose-response experiments (10-fold serial dilutions from 3 mM to 30 nM), using recombinant WT and G119S AChE1 or mosquito head extracts (heads cut from frozen mosquitoes, homogenized in 400 µl PB containing 1% Triton X-100 and cleared by centrifugation at 9,000×g for 3 min). Depending on compound availability, two to five replicates were performed with distinct batches of enzyme. […] IC50 was estimated by nonlinear least square regression. IC50 was also measured on AChE1 from susceptible and resistant mosquito larvae extracts.

SMILES | IC50
Cc1ccc(C=C2C(=O)NC(=S)N(c3ccc(Br)cc3)C2=O)o1 [PTF-37] | 2120 µM
CN1C(=O)C(=Cc2ccco2)C(=O)N(C)C1=O [PTF-38] | 1190 µM
CN1C(=O)C(=Cc2ccc([N+](=O)[O-])o2)C(=O)N(C)C1=O [PTF-40] | 83 µM
CN1C(=O)C(=Cc2ccc(N(C)C)o2)C(=O)N(C)C1=O [PTF-41] | 175 µM
CCN(CC)c1ccc(C=C2C(=O)N(C)C(=O)N(C)C2=O)o1 [PTF-42] | 720 µM
CN1C(=O)C(=Cc2ccc(-c3ccccc3C(=O)O)o2)C(=O)N(C)C1=O [PTF-43] | 6.7 µM
CN1C(=O)C(=Cc2ccc(-c3cccc(C(=O)O)c3)o2)C(=O)N(C)C1=O [PTF-44] | 0.6 µM
CC(=O)c1ccc(-c2ccc(C=C3C(=O)N(C)C(=O)N(C)C3=O)o2)cc1 [PTF-45] | 3.4 µM
CN1C(=O)C(=Cc2ccc(-c3ccc(S(N)(=O)=O)cc3)o2)C(=O)N(C)C1=O [PTF-46] | 1.7 µM
CN1C(=O)C(=Cc2ccc(Sc3ccccc3)o2)C(=O)N(C)C1=O [PTF-47] | 3 µM
CN1C(=O)C(=Cc2ccc(N3CCCC3)o2)C(=O)N(C)C1=O [PTF-48] | 755 µM
CN1C(=O)C(=Cc2ccc(N3CCCCC3)o2)C(=O)N(C)C1=O [PTF-49] | 97 µM
CN1C(=O)C(=Cc2ccc(N3CCOCC3)o2)C(=O)N(C)C1=O [PTF-50] | 260 µM
CN1CCN(c2ccc(C=C3C(=O)N(C)C(=O)N(C)C3=O)o2)CC1 [PTF-52] | 860 µM
CN1C(=O)C(=Cc2ccc(-c3ccc4c(c3)COC4=O)o2)C(=O)N(C)C1=O [PTF-53] | 0.6 µM
O=C1NC(=O)N(c2ccccc2)C(=O)C1=Cc1ccco1 [PTF-54] | 1390 µM

The compounds below were run on C. pipiens SR strain larvae (assay: Larval bioassay, SR strain (OP-resistant)). Details: fourth-instar larvae, 24 hours exposure, 300 µM.
Excerpt: (§2) Three C. pipiens strains were used: the susceptible reference Slab strain, homozygous for ace-1 ^S [39], the resistant reference SR strain, carrying the genetical background of Slab but homozygous for the G119S mutation, allele ace-1 ^R [21] and the Ducos strain, carrying the genetical background of Slab but homozygous for an ace-1 duplication, with one ace-1^S and ace-1^R copy in tandem. Culex pipiens heterozygous larvae (Slab×SR) were obtained by crossing Slab males and SR females.
(§3) Insecticidal activity was determined by performing bioassays on fourth-instar larvae as described in [42]. Each compound was dissolved in ethanol. Propoxur (CX) and chlorpyrifos (OP) were used as references. For each compound, we first tested mortality after a 24-hour exposure at 300 µM. […] Mortality data were analyzed by the log-probit program.

SMILES | Mortality at 300 µM, SR
Cc1ccc(C=C2C(=O)NC(=S)N(c3ccc(Br)cc3)C2=O)o1 [PTF-37] | 35%
CN1C(=O)C(=Cc2ccco2)C(=O)N(C)C1=O [PTF-38] | 90%
CN1C(=O)C(=Cc2ccc([N+](=O)[O-])o2)C(=O)N(C)C1=O [PTF-40] | 0%
CN1C(=O)C(=Cc2ccc(N(C)C)o2)C(=O)N(C)C1=O [PTF-41] | 20%
CCN(CC)c1ccc(C=C2C(=O)N(C)C(=O)N(C)C2=O)o1 [PTF-42] | 0%
CN1C(=O)C(=Cc2ccc(-c3ccccc3C(=O)O)o2)C(=O)N(C)C1=O [PTF-43] | 0%
CN1C(=O)C(=Cc2ccc(-c3cccc(C(=O)O)c3)o2)C(=O)N(C)C1=O [PTF-44] | 0%
CC(=O)c1ccc(-c2ccc(C=C3C(=O)N(C)C(=O)N(C)C3=O)o2)cc1 [PTF-45] | 0%
CN1C(=O)C(=Cc2ccc(-c3ccc(S(N)(=O)=O)cc3)o2)C(=O)N(C)C1=O [PTF-46] | 0%
CN1C(=O)C(=Cc2ccc(Sc3ccccc3)o2)C(=O)N(C)C1=O [PTF-47] | 0%
CN1C(=O)C(=Cc2ccc(N3CCCC3)o2)C(=O)N(C)C1=O [PTF-48] | 0%
CN1C(=O)C(=Cc2ccc(N3CCCCC3)o2)C(=O)N(C)C1=O [PTF-49] | 0%
CN1C(=O)C(=Cc2ccc(N3CCOCC3)o2)C(=O)N(C)C1=O [PTF-50] | 0%
CN1CCN(c2ccc(C=C3C(=O)N(C)C(=O)N(C)C3=O)o2)CC1 [PTF-52] | 0%
CN1C(=O)C(=Cc2ccc(-c3ccc4c(c3)COC4=O)o2)C(=O)N(C)C1=O [PTF-53] | 0%
O=C1NC(=O)N(c2ccccc2)C(=O)C1=Cc1ccco1 [PTF-54] | 100%

These compounds were tested against T1, G119S AChE1 (Culex pipiens, UniProt Q86GC8, G247S) (assay: biochemical). Details: recombinant OP-insensitive G119S C. pipiens AChE1; 15 min incubation; acetylthiocholine; read-out: IC50 G119S.
T1 construct: made in house; host or cells: Drosophila S2 cells
Assay type: biochemical
Experimental: as §1, with “Compounds (30 µM final concentration) were incubated for 15 min at room temperature with 100 µl of G119S recombinant AChE1 then 100 µl of substrate (acetylthiocholine, 1.6 mM, Sigma-Aldrich) was added and the residual activity was quantified by measuring the optical density at 412 nm, as described by Ellman et al..” left out

SMILES | IC50
Cc1ccc(C=C2C(=O)NC(=S)N(c3ccc(Br)cc3)C2=O)o1 [PTF-37] | 142 µM
CN1C(=O)C(=Cc2ccco2)C(=O)N(C)C1=O [PTF-38] | 357 µM
CN1C(=O)C(=Cc2ccc([N+](=O)[O-])o2)C(=O)N(C)C1=O [PTF-40] | 55 µM
CN1C(=O)C(=Cc2ccc(N(C)C)o2)C(=O)N(C)C1=O [PTF-41] | 132 µM
CCN(CC)c1ccc(C=C2C(=O)N(C)C(=O)N(C)C2=O)o1 [PTF-42] | 1040 µM
CN1C(=O)C(=Cc2ccc(-c3ccccc3C(=O)O)o2)C(=O)N(C)C1=O [PTF-43] | 8.3 µM
CN1C(=O)C(=Cc2ccc(-c3cccc(C(=O)O)c3)o2)C(=O)N(C)C1=O [PTF-44] | 0.6 µM
CC(=O)c1ccc(-c2ccc(C=C3C(=O)N(C)C(=O)N(C)C3=O)o2)cc1 [PTF-45] | 1.1 µM
CN1C(=O)C(=Cc2ccc(-c3ccc(S(N)(=O)=O)cc3)o2)C(=O)N(C)C1=O [PTF-46] | 5.2 µM
CN1C(=O)C(=Cc2ccc(Sc3ccccc3)o2)C(=O)N(C)C1=O [PTF-47] | 1.3 µM
CN1C(=O)C(=Cc2ccc(N3CCCC3)o2)C(=O)N(C)C1=O [PTF-48] | 1520 µM
CN1C(=O)C(=Cc2ccc(N3CCCCC3)o2)C(=O)N(C)C1=O [PTF-49] | 65.5 µM
CN1C(=O)C(=Cc2ccc(N3CCOCC3)o2)C(=O)N(C)C1=O [PTF-50] | 145 µM
CN1CCN(c2ccc(C=C3C(=O)N(C)C(=O)N(C)C3=O)o2)CC1 [PTF-52] | 52 µM
CN1C(=O)C(=Cc2ccc(-c3ccc4c(c3)COC4=O)o2)C(=O)N(C)C1=O [PTF-53] | 5.6 µM
O=C1NC(=O)N(c2ccccc2)C(=O)C1=Cc1ccco1 [PTF-54] | 737 µM

The compounds below were run on C. pipiens Slab strain larvae (assay: Larval bioassay, Slab strain (OP-susceptible)). Details: fourth-instar larvae, 24 hours exposure, 300 µM.
Excerpt: as §2, with “females. Two A. gambiae reference strains (S molecular form) were used: the susceptible strain Kisumu, homozygous for ace-1 ^S, collected in Kenya in 1953 and maintained since then under laboratory conditions and the resistant Acerkis strain, carrying the genetical background of Kisumu but homozygous for an ace-1^R allele from a population collected in Bobo-Dioulasso, Burkina Faso [41].” for “females.”
as §3, with “program. This program takes into account natural mortality and provides lethal doses (LD) and slopes for each mortality line; it also computes resistance ratios (RR) for each LD, with 95% confidence intervals.” for “program.”

SMILES | Mortality at 300 µM, Slab
Cc1ccc(C=C2C(=O)NC(=S)N(c3ccc(Br)cc3)C2=O)o1 [PTF-37] | 0%
CN1C(=O)C(=Cc2ccco2)C(=O)N(C)C1=O [PTF-38] | 70%
CN1C(=O)C(=Cc2ccc([N+](=O)[O-])o2)C(=O)N(C)C1=O [PTF-40] | 0%
CN1C(=O)C(=Cc2ccc(N(C)C)o2)C(=O)N(C)C1=O [PTF-41] | 20%
CCN(CC)c1ccc(C=C2C(=O)N(C)C(=O)N(C)C2=O)o1 [PTF-42] | 0%
CN1C(=O)C(=Cc2ccc(-c3ccccc3C(=O)O)o2)C(=O)N(C)C1=O [PTF-43] | 0%
CN1C(=O)C(=Cc2ccc(-c3cccc(C(=O)O)c3)o2)C(=O)N(C)C1=O [PTF-44] | 0%
CC(=O)c1ccc(-c2ccc(C=C3C(=O)N(C)C(=O)N(C)C3=O)o2)cc1 [PTF-45] | 0%
CN1C(=O)C(=Cc2ccc(-c3ccc(S(N)(=O)=O)cc3)o2)C(=O)N(C)C1=O [PTF-46] | 0%
CN1C(=O)C(=Cc2ccc(Sc3ccccc3)o2)C(=O)N(C)C1=O [PTF-47] | 0%
CN1C(=O)C(=Cc2ccc(N3CCCC3)o2)C(=O)N(C)C1=O [PTF-48] | 0%
CN1C(=O)C(=Cc2ccc(N3CCCCC3)o2)C(=O)N(C)C1=O [PTF-49] | 13%
CN1C(=O)C(=Cc2ccc(N3CCOCC3)o2)C(=O)N(C)C1=O [PTF-50] | 0%
CN1CCN(c2ccc(C=C3C(=O)N(C)C(=O)N(C)C3=O)o2)CC1 [PTF-52] | 0%
CN1C(=O)C(=Cc2ccc(-c3ccc4c(c3)COC4=O)o2)C(=O)N(C)C1=O [PTF-53] | 0%
O=C1NC(=O)N(c2ccccc2)C(=O)C1=Cc1ccco1 [PTF-54] | 100%
